# Source: patent US7687473B2, “5-amino-4-imidazolecarboxamide riboside and its nucleobase as potentiators of antifolate transport and metabolism” (Health Research, Inc., priority 2005, dated 2010)
# Like-named read-outs stand apart in the source and are kept apart here.
# Key:
# Type in all cases: cell-based, human
# [1] = test system: CCRF-CEM cells; test: [3H]MTX uptake (initial velocity and 30 min accumulation) in CCRF-CEM cells; details: for Potentiation of [3H]MTX uptake at 30 min: compound at 0.5 mM, 10 min pre-incubation with TMTX
# Procedure: Quantitation of folate and antifolate uptake. The method is essentially as follows. Briefly, logarithmically growing (3-5×10^5/ml) CCRF-CEM cells were harvested at room temperature by centrifugation at 1000×g for 5 min. After washing with the appropriate medium, cells were suspended at ≈2×10^7 cells/ml for use in transport studies. […] Anion-free MHS contains 250 mM sucrose and 20 mM HEPES, titrated to pH 7.4 with MgO. […] Uptake was measured as a function of time for 30 min (for rate and extent measurements) or over 5 min (studies requiring initial velocities). […] Uptake was terminated by diluting 100 μL samples into 1 ml of iced 0.9% NaCl. […] The supernatant was aspirated. The cell pellet was washed once with 1 ml iced 0.9% NaCl and centrifuged as above. The washed pellet was solubilized in 1 ml of 0.3% Triton X-100 by incubation for 60 min at 37° C. The solubilized pellet was transferred to a scintillation vial, 10 ml of Liquiscint (National Diagnostics, Atlanta, Ga.) was added and radioactivity was quantitated in a Beckman Model LS6500 liquid scintillation counter. Separate samples at the longest incubation time used in a particular experiment were harvested for HPLC analysis of intracellular contents as above, except that after the second wash the pellets were extracted with 1 ml boiling 0.1 M Na-phosphate, pH 5.5. The extract was clarified by centrifugation and the supernatant was filtered through an MPS-1 filter unit (Amicon) prior to HPLC analysis.
# [2] = test system: CCRF-CEM cells; test: cells; details: for EC50: Homo sapiens, CCRF-CEM, drug exposure 0-24/120 hr, read-out: EC50
# Procedure: Inhibition of growth of human cell lines in vitro. Inhibition of growth of CCRF-CEM in continuous and intermittent drug exposures was measured. EC50 values were determined from plots of percent control growth versus the logarithm of drug concentration.
# […]; n=2). […]; n=2). Values presented are average±S.D. for n>2 and average±range for n=2. […] […]; EC50 data may therefore underestimate the biological potency.
# [3] = test system: CCRF-CEM cells; test: Accumulation of DDATHF polyglutamates in CCRF-CEM cells; details: for DDATHF-Glun, N = 1 / DDATHF-Glun, N = 2 / DDATHF-Glun, N = 3 / DDATHF-Glun, N = 4 / DDATHF-Glun, N = 5 / DDATHF-Glun, N = 6 / DDATHF-Glun, Total / DDATHF-Glun, Total N ≧ 3: 4 hr, 1 μM [3H]DDATHF
# Procedure: At the end of the exposure cells were rapidly chilled to 4 degrees C., harvested by centrifugation at 1000×g for 5 min, washed twice with iced 0.9% NaCl by centrifugation in the same manner. One mL of boiling 50 mM Na-phosphate, pH 5.5 was added, the pellet was triturated and the sample boiled for 5 min. The sample was rapidly cooled to 4 degrees C. Debris was removed by centrifugation as above. The supernatant was further clarified by centrifugation through an Amicon MPS-1 filter unit. […] A suitable volume was injected onto a reversed-phase HPLC column (C18) and eluted with a gradient of from 4-14% acetonitrile over about 43 min. One min fractions were collected and, after addition of 10 ml scintillation fluid, were quantitated by liquid scintillation counting. […]
compound,measurement,setting,value
Nc1ncnc2c1ncn2[C@H]1C[C@H](O)[C@@H](CO)O1 [deoxyadenosine],Potentiation of [3H]MTX uptake at 30 min,[1],do not potentiate
"NC(=O)NC1NC(=O)NC1=O (stereo not drawn) [ALN, allantoin]",Potentiation of [3H]MTX uptake,[1]; 500 μM,does not potentiate
same,Inhibition of potentiation by 500 μM Z,[1]; up to 100 μM,does not inhibit potentiation
NC(=O)CC[C@H](N)C(=O)O [glutamine],Ability to potentiate [3H]MTX uptake,[1],unable to potentiate
NC(=O)c1[nH]nc([C@@H]2O[C@H](CO)[C@@H](O)[C@H]2O)c1O [pyrazofurin],Ability to potentiate [3H]MTX uptake,[1],unable to potentiate
Nc1nc2nc[nH]c2c(=O)[nH]1 [guanine],Potentiation of [3H]MTX uptake at 30 min,[1],do not potentiate
CSCC[C@H](N)C(=O)O [methionine],Ability to potentiate [3H]MTX uptake,[1],unable to potentiate
"Nc1ncnc2c1ncn2[C@@H]1O[C@H](CO)[C@@H](O)[C@H]1O [Adenosine, adenosine]",Ability to potentiate [3H]MTX uptake,[1],unable to potentiate
same,Potentiation of [3H]MTX uptake at 30 min,[1],do not potentiate
"Nc1nc(N)c2nc(CNc3ccc(C(=O)N[C@@H](CCC(=O)O)C(=O)O)cc3)cnc2n1 [AMT, 4-amino-pteroylglutamic acid]",Increase of growth inhibitory potency (EC50) by Z,"[2]; 0-24 hr pulse of 120 hr, 100 μM Z",≈ 2 fold
same,EC50,[2]; [Z] 0 μM,6.1 ± 1.3 nM
same,EC50,[2]; [Z] 100 μM,3.7 ± 0.3 nM
OC[C@H]1O[C@@H](n2cnc3c(O)ncnc32)C[C@@H]1O [deoxyinosine],Potentiation of [3H]MTX uptake at 30 min,[1],do not potentiate
"NC(=O)c1nc[nH]c1N [Z-base, 5-amino-4-imidazolecarboxamide]",Potentiation of [3H]MTX uptake at 30 min,[1],potentiates
"Nc1nc2c(c(=O)[nH]1)CC(CCc1ccc(C(=O)N[C@@H](CCC(=O)O)C(=O)O)cc1)CN2 (stereo partly drawn) [DDATHF, 5,10-dideazatetrahydrofolate]",Effect of Z on DDATHF uptake,[3]; 30 min incubation,no effect of Z was observed
same,Increase of total drug accumulation by Z,[3]; 4 hr incubation with 1 μM [3H]DDATHF,11%
same,"DDATHF-Glun, N = 1",[3]; +Z,17.5 ± 1.3 pmol/10^7 cells
same,"DDATHF-Glun, N = 2",[3]; +Z,5.9 ± 0.1 pmol/10^7 cells
same,"DDATHF-Glun, N = 3",[3]; +Z,10.1 ± 0.1 pmol/10^7 cells
same,"DDATHF-Glun, N = 4",[3]; +Z,15.2 ± 0.8 pmol/10^7 cells
same,"DDATHF-Glun, N = 5",[3]; +Z,29.8 ± 0.3 pmol/10^7 cells
same,"DDATHF-Glun, N = 6",[3]; +Z,33.0 ± 2.3 pmol/10^7 cells
same,"DDATHF-Glun, Total",[3]; +Z,111.3 pmol/10^7 cells
same,"DDATHF-Glun, Total N ≧ 3",[3]; +Z,88.0 pmol/10^7 cells
same,"DDATHF-Glun, N = 1",[3]; −Z,14.8 ± 0.8 pmol/10^7 cells
same,"DDATHF-Glun, N = 2",[3]; −Z,4.9 ± 0.8 pmol/10^7 cells
same,"DDATHF-Glun, N = 3",[3]; −Z,9.2 ± 0.9 pmol/10^7 cells
same,"DDATHF-Glun, N = 4",[3]; −Z,13.3 ± 2.1 pmol/10^7 cells
same,"DDATHF-Glun, N = 5",[3]; −Z,28.1 ± 2.1 pmol/10^7 cells
same,"DDATHF-Glun, N = 6",[3]; −Z,30.5 ± 0.9 pmol/10^7 cells
same,"DDATHF-Glun, Total",[3]; −Z,100.8 pmol/10^7 cells
same,"DDATHF-Glun, Total N ≧ 3",[3]; −Z,81.1 pmol/10^7 cells
O=CO [formate],Ability to potentiate [3H]MTX uptake,[1],unable to potentiate
